Experimental data from publication PMC12267471, “Discovery of natural scaffolds as HER2 inhibitors for breast cancer: virtual screening, molecular dynamics, and biological characterization with selectivity profiling” (Scientific Reports, 2025).
Each block holds one molecule with its values, some of them ahead of it.

Tests used:
HER2 kinase = biological target: T1, HER2 kinase (Homo sapiens, UniProt P04626); assay: Z'-LYTE Kinase Assay-Tyr6 Peptide biochemical HER2 kinase assay; conditions: for IC50: Tyr6 peptide substrate, read-out: IC50, inhibition of ATP-induced HER2 phosphorylation
T1 construct: HER2 purified kinase domain (amino acids 676–1255); purchased Thermo Fischer Scientific PV3590
T1 sequence (P04626 676-1255): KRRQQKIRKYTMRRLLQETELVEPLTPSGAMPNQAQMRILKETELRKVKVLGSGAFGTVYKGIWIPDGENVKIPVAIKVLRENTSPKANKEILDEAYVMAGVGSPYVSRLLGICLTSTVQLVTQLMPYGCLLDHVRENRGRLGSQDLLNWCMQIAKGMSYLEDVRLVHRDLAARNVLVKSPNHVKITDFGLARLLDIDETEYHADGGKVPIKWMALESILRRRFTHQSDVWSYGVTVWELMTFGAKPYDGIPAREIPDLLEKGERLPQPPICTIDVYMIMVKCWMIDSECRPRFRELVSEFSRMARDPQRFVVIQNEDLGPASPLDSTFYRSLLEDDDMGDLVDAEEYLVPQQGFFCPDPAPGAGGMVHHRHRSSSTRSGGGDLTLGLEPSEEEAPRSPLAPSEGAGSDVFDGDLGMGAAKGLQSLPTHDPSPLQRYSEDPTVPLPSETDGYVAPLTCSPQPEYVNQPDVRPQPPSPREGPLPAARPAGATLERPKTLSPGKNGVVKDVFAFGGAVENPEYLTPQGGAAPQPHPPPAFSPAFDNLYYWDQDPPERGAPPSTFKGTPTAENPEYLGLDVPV
Text: The Z’-LYTE™ Kinase Assay-Tyr6 Peptide kit (Thermo Fischer Scientific™, Madison, WI, USA) was employed to evaluate the potential of selected natural products to suppress the catalytic activity of HER2 kinase. The assay adopts a Fluorescence Resonance Energy Transfer (FRET) based method in a cell-free coupled-enzyme format with no use of antibodies. The assay method mainly relies on the difference in sensitivity of phosphorylated and non-phosphorylated peptides to proteolytic cleavage. This method is a ratio metric method that calculates the Emission Ratio of donor emission divided by acceptor emission after excitation of the donor fluorophore at 400 nm. In this assay, 20 µL/well reactions containing kinase buffer, 200 µM ATP, 4µM Z’-LYTE Tyr6 Peptide substrate, 2500 ng/mL HER2 kinase, and drugs of interest functioning as inhibitors were set up in 96-well plates. Each well received 10 µL of site-specific protease development solution after one hour of room temperature incubation. The incubation continued for a full hour. Following process termination, the kinase inhibitory activity and/or peptide substrate cleavage status were assessed using a plate reader (BioTek FLx800™) to measure the ratio of fluorescence signal at 445 nm (coumarin)/520 nm (fluorescein).
The IC50 value for each natural product was computed using XLfit® 4.1 software (ID Business Solutions Inc. (IDBS), Emeryville CA), applying non-linear regression of log concentration against the percentage of HER2 inhibition.
Utilizing the Z’-LYTE™ Kinase Assay-Tyr6 Peptide kit as a cell-free system for evaluating the inhibitory activity of HER2, the five natural products were evaluated for their capacity to inhibit HER2 phosphorylation. Since its kinase catalysis is necessary for all HER2-mediated activities, we attempted at this initial stage to validate the HER2 inhibitory ability of the five in silico hits directly on the HER2 purified kinase domain (amino acids 676–1255), that was in vitro phosphorylated to attain the maximum level of intrinsic kinase activity. In this assay, the substrate was Z’-LYTE™ Tyr6 peptide; thus, the changes in its phosphorylation can directly correlate with the HER2 kinase activity. In the meantime, tyrphostin AG 1478 was used as a positive control to ensure the validity of the assay. Lapatinib (Tykerb®) was included as a second positive control to benchmark virtual hits’ performance against clinically approved standards.

BT-474 cells [1] = assay: MTT proliferation assay, BT-474; assay type: cell-based, human
SKBR3 cells [2] = assay: MTT proliferation assay, SKBR3; assay type: cell-based, human
BT-474 cells [3] = assay: Wound healing assay, BT-474; assay type: cell-based; conditions: Homo sapiens
Description: (§1) In a sterile flat-bottom 24-well plate, SKBR3 and BT-474 breast cancer cells were plated at a density of 1 × 10^5 cells/well. […] Wounds were then inflicted across each cell monolayer using a sterile 200 µL pipette tip. Media was aspirated, and cells were washed twice with PBS to remove floating cells and cell debris. Fresh serum-free media was placed up against the well wall to cover the bottom of the well and prevent further cell detachment. Incubation of cells was resumed for five hours at 37 °C in a humidified CO2 incubator. Subsequently, the media were substituted with fresh ones containing various doses of liquiritin, oroxin B, or DMSO as a vehicle control (3 replicates/group) along with EGF (100 ng/mL) as a scattering factor. Wound closure was microscopically monitored in vehicle-treated control wells, and the time frame for wound closure was determined to be 72 h. Before the closure of wounds in the vehicle-treated control wells, the media were removed, cells were washed with PBS and completely fixed using cold methanol for 20 min at 4 °C. An inverted VistaVision microscope was used to take pictures of the wounds monitored at zero and 72 h with a VistaVision Still camera (VWR, Radnor, PA).
(§2) Results were expressed as a percentage of cell migration according to the following Equation[16]: [drawing 2]
(§3) Where Tt is the wound thickness in treatment wells, TDMSO is the thickness of the wound in control wells treated by DMSO, and Tº is the thickness of the wound at zero time. Wound thickness was calculated in three or more randomly selected fields per treatment group.

SKBR3 cells [4] = assay: Wound healing assay, SKBR3; assay type: cell-based; conditions: Homo sapiens
Description: as §1, §2, §3

MCF10A cells = assay: MTT cytotoxicity assay, non-tumorigenic MCF10A; assay type: cell-based, human
ERBB4 = system: ERBB4; parameters: method as in earlier work; conditions: Table S1; cited from earlier work
EGFR = system: EGFR; parameters: method as in earlier work; conditions: Table S1; cited from earlier work
ERBB2 = system: ERBB2; parameters: method as in earlier work; conditions: Table S1; cited from earlier work
[5] = Homo sapiens, BT-474, MTT, 48 h (Table S8), read-out: Cell growth inhibition IC50
[6] = Homo sapiens, BT-474, Table S9, read-out: IC50
[7] = Homo sapiens, SK-BR-3, SKBR3, MTT, 48 h (Table S8), read-out: Cell growth inhibition IC50

Structure (SMILES): O=c1cc(-c2ccccc2)oc2cc(O[C@@H]3O[C@H](CO[C@@H]4O[C@H](CO)[C@@H](O)[C@H](O)[C@H]4O)[C@@H](O)[C@H](O)[C@H]3O)c(O)c(O)c12 [Oroxin B]
IC50 (HER2 kinase; cell-free Z'-LYTE): 12.1 nM | IC50 (BT-474 cells [1]; [5]): 6.9 µM | IC50 (BT-474 cells [1]; [6]): 6.9 ± 0.7 µM | IC50 (SKBR3 cells [2]; [7]): 11.9 µM | IC50 (SKBR3 cells [2]; Homo sapiens, SK-BR-3, SKBR3, Table S9, read-out: IC50): 11.9 ± 0.8 µM | IC50 (BT-474 cells [3]; BT-474, read-out: IC50, cell migration): > 20 µM | inhibition at 3 µM (BT-474 cells [3]; BT-474, 3 µM, 72 h, read-out: inhibition of cell migration): 18.9% | inhibition at 7 µM (BT-474 cells [3]; BT-474, 7 µM, 72 h, read-out: inhibition of cell migration): 26.5% | inhibition at 10 µM (BT-474 cells [3]; BT-474, 10 µM, 72 h, read-out: inhibition of cell migration): 29.5% | inhibition at 20 µM (BT-474 cells [3]; BT-474, 20 µM, 72 h, read-out: inhibition of cell migration): 38.6% | IC50 (SKBR3 cells [4]; SK-BR-3, read-out: IC50, cell migration): > 36 µM | inhibition at 6 µM (SKBR3 cells [4]; SK-BR-3, SKBR3, 6 µM, 72 h, read-out: inhibition of cell migration): 23.5% | inhibition at 12 µM (SKBR3 cells [4]; SK-BR-3, SKBR3, 12 µM, 72 h, read-out: inhibition of cell migration): 26.5% | inhibition at 18 µM (SKBR3 cells [4]; SK-BR-3, SKBR3, 18 µM, 72 h, read-out: inhibition of cell migration): 31.1% | inhibition at 36 µM (SKBR3 cells [4]; SK-BR-3, SKBR3, 36 µM, 72 h, read-out: inhibition of cell migration): 34.8% | IC50 (MCF10A cells; Homo sapiens, MCF-10A, MCF10A, MTT, 24 h): 53 ± 2.1 µM | selectivity index (SI) (MCF10A cells; IC50 MCF10A / IC50 BT-474): 7.7 | selectivity index (SI) (MCF10A cells; IC50 MCF10A / IC50 SKBR3): 4.5

inhibition at 0.015 µM (HER2 kinase; at 15 nM): 54% | inhibition at 0.03 µM (HER2 kinase; at 30 nM): 75% | IC50 (BT-474 cells [1]; [5]): 0.117 µM | IC50 (BT-474 cells [1]; Homo sapiens, BT-474, MTT, 48 h, read-out: IC50): 0.118 µM | IC50 (SKBR3 cells [2]; Homo sapiens, SK-BR-3, SKBR3, MTT, 48 h, read-out: IC50): 0.153 µM
Structure (SMILES): CS(=O)(=O)CCNCc1ccc(-c2ccc3ncnc(Nc4ccc(OCc5cccc(F)c5)c(Cl)c4)c3c2)o1 [Lapatinib, reference compound]

Structure (SMILES): COc1cc2ncnc(Nc3ccc(F)c(Cl)c3)c2cc1NC(=O)/C=C/CN1CCCCC1 [Dacomitinib]
IC50 (ERBB4): […] | IC50 (EGFR): 6 nM | IC50 (ERBB2): […]

Structure (SMILES): CN[C@@H]1C[C@H]2O[C@@](C)([C@@H]1OC)n1c3ccccc3c3c4c(c5c6ccccc6n2c5c31)C(=O)NC4 [Staurosporine, reference compound]
IC50 (BT-474 cells [1]; [5]): 3.2 µM | IC50 (BT-474 cells [1]; [6]): 3.2 ± 0.3 µM

Structure (SMILES): OC[C@H]1O[C@@H](Oc2cc3c(O[C@@H]4O[C@H](CO)[C@@H](O)[C@H](O)[C@H]4O)cc(O)cc3[o+]c2-c2cc(O)c(O)c(O)c2)[C@H](O)[C@@H](O)[C@@H]1O [Delphin, Delphinidin-3,5-O-diglucoside]
suppression of HER2 phosphorylation (HER2 kinase; cell-free Z'-LYTE): no discernible suppression

IC50 (HER2 kinase; cell-free Z'-LYTE): 37.7 nM | IC50 (BT-474 cells [1]; [5]): 5.9 µM | IC50 (SKBR3 cells [2]; [7]): 11 µM
Structure (SMILES): OC[C@H]1O[C@@H](Oc2cc(O)cc(/C=C/c3ccc(O[C@@H]4O[C@H](CO)[C@@H](O)[C@H](O)[C@H]4O)cc3O)c2)[C@H](O)[C@@H](O)[C@@H]1O [Mulberroside A]

IC50 (HER2 kinase; cell-free Z'-LYTE): 36.5 nM | IC50 (BT-474 cells [1]; BT-474, MTT, 48 h (Table S8), read-out: Cell growth inhibition IC50): 6 µM | IC50 (SKBR3 cells [2]; SKBR3, MTT, 48 h (Table S8), read-out: Cell growth inhibition IC50): 12.7 µM
Structure (SMILES): C[C@@H]1O[C@@H](OC[C@H]2O[C@@H](Oc3cc(O)c4c(=O)cc(-c5ccc(O)cc5)oc4c3)[C@H](O[C@@H]3O[C@@H](C)[C@H](O)[C@@H](O)[C@H]3O)[C@@H](O)[C@@H]2O)[C@H](O)[C@H](O)[C@H]1O [Ligustroflavone]
